Assay results reported in patent US9790220B2, “Substituted cyclopentanes, tetrahydrofuranes and pyrrolidines as orexin receptor antagonists” (Takeda Pharmaceutical Company Limited, priority 2014, dated 2017).

Key:
human orexin receptor 1 = human orexin receptor 1 (Homo sapiens (Human), UniProt O43613); experiment: Orexin antagonist activity, intracellular calcium FLIPR assay (orexin receptor 1); type: cell-based; conditions: RBL-2H3 cells stably expressing human orexin receptor 1; orexin-A at approx. 80% maximal response; 15 min preincubation; read-out: Human Orexin1R IC50
human orexin receptor 1, sequence (O43613 whole entry): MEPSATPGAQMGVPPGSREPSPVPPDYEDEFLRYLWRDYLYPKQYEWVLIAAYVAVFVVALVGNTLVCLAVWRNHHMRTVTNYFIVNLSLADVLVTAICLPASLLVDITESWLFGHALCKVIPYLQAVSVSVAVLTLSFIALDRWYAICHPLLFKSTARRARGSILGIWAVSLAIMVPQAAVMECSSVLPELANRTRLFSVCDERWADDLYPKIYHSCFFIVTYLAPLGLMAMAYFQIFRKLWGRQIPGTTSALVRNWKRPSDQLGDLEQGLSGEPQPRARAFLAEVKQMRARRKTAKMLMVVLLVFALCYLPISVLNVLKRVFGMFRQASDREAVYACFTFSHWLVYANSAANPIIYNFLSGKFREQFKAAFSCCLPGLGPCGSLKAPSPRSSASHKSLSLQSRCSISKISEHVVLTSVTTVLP
Procedure: (§1) Orexin antagonist activity was determined by measuring changes in intracellular calcium levels using a Ca^2+ sensitive fluorescent dye. The changes in fluorescent signal were monitored by Fluorescent Imaging Plate Reader (FLIPR™) technology available from Molecular Devices, LLC, U.S.A. Orexin mediated increases in intracellular Ca^2+ concentration were readily detected upon activation with orexin-A. Twenty-four hours prior to the assay, RBL-2H3 cells stably expressing either human orexin receptor 1 or human orexin receptor 2 were seeded in cell culture medium in black, clear-bottom 384-well plates (commercially available from Corning Inc., U.S.A.) and grown overnight at 37° C., 5% CO2. On the day of the assay, cell culture media was removed and cells were loaded with Calcium 5 Dye (commercially sold by Molecular Devices, LLC, U.S.A.) for 1 hour at 37° C., 5% CO2. Test compounds (at 10 point half log concentration response curves from 10 μM) were added to cells for 15 minutes prior to the addition of orexin-A to all wells, to achieve a final concentration that produces approximately an 80% maximal response. The IC50 values were determined from ten point concentration response curves. Curves were generated using the average of two wells for each data point. The results obtained are shown in the table below in which ‘NT’ denotes ‘Not Tested’.

human orexin receptor 2 = human orexin receptor 2 (Homo sapiens (Human), UniProt O43614); experiment: Orexin antagonist activity, intracellular calcium FLIPR assay (orexin receptor 2); type: cell-based; conditions: RBL-2H3 cells stably expressing human orexin receptor 2; orexin-A at approx. 80% maximal response; 15 min preincubation; read-out: Human Orexin2R IC50
human orexin receptor 2, sequence (O43614 whole entry): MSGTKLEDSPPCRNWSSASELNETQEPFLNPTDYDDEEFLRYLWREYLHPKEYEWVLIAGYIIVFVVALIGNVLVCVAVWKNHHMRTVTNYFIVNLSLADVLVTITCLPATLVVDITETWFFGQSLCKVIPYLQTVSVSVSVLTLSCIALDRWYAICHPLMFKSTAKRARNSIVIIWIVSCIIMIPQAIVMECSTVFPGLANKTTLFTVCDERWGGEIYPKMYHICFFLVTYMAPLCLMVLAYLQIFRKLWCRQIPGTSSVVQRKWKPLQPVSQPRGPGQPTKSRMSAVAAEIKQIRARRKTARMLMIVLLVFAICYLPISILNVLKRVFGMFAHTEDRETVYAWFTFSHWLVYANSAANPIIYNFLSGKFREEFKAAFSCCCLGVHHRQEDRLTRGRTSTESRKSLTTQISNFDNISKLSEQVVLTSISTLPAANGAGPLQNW
Procedure: as §1

Row | Structure (SMILES) | IC50 (human orexin receptor 1) | IC50 (human orexin receptor 2)
1 | CCOc1ccc(C)nc1C(=O)NC1CCCC1Cc1ccc2ccccc2n1 (stereo not drawn) [Example 27, 3-Ethoxy-6-methyl-N-[2-(quinolin-2-ylmethyl)cyclopentyl]pyridine-2-carboxamide] | 71 nM | 6000 nM
2 | O=C(N[C@H]1CCC[C@@H]1Nc1nc2ccc(F)cc2s1)c1ncccc1F [Example 11, 3-Fluoro-N-[(1S,2S)-2-[(6-fluoro-1,3-benzothiazol-2-yl)amino]cyclopentyl]pyridine-2-carboxamide] | 330 nM | > 10000 nM
3 | COc1cccnc1C(=O)N(C)[C@H]1CCC[C@@H]1Nc1nc2ccc(F)cc2s1 [Example 5, N-[(1S,2S)-2-[(6-Fluoro-1,3-benzothiazol-2-yl)amino]cyclopentyl]-3-methoxy-N-methylpyridine-2-carboxamide] | 14 nM | 2800 nM
4 | O=C(N[C@H]1CCC[C@@H]1Nc1nc2ccc(F)cc2s1)c1ncccc1Br [Example 1, 3-Bromo-N-[(1S,2S)-2-[(6-fluoro-1,3-benzothiazol-2-yl)amino]cyclopentyl]-pyridine-2-carboxamide] | 43 nM | > 10000 nM
5 | COC1CN(c2cccnc2C(=O)N[C@H]2CCC[C@@H]2Nc2nc3ccc(F)cc3s2)C1 [Example 15, N-[(1S,2S)-2-[(6-Fluoro-1,3-benzothiazol-2-yl)amino]cyclopentyl]-3-(3-methoxyazetidin-1-yl)pyridine-2-carboxamide] | 150 nM | > 10000 nM
6 | COc1cccnc1C(=O)N[C@H]1CCC[C@@H]1Nc1nc2ccc(F)cc2o1 [Example 7, N-[(1S,2S)-2-[(6-Fluoro-1,3-benzoxazol-2-yl)amino]cyclopentyl]-3-methoxypyridine-2-carboxamide] | 540 nM | > 10000 nM
7 | COc1ccc(C)nc1C(=O)N[C@H]1CCC[C@@H]1Nc1nc2ccc(F)cc2s1 [Example 9, N-[(1S,2S)-2-[(6-Fluoro-1,3-benzothiazol-2-yl)amino]cyclopentyl]-3-methoxy-6-methylpyridine-2-carboxamide] | 84 nM | > 10000 nM
8 | O=C(N[C@H]1CCC[C@@H]1Nc1nc2ccc(Cl)cc2s1)c1ncccc1-n1nccn1 [Example 21, N-[(1S,2S)-2-[(6-Chloro-1,3-benzothiazol-2-yl)amino]cyclopentyl]-3-(2H-1,2,3-triazol-2-yl)pyridine-2-carboxamide] | 24 nM | > 10000 nM
9 | O=C(N[C@H]1CCC[C@@H]1Nc1nc2ccc(F)cc2s1)c1ncccc1N1CCCCC1 [Example 12, N-[(1S,2S)-2-[(6-Fluoro-1,3-benzothiazol-2-yl)amino]cyclopentyl]-3-(piperidin-1-yl)pyridine-2-carboxamide] | 42 nM | > 10000 nM
10 | COc1cccnc1C(=O)N[C@H]1CCC[C@@H]1Nc1cnc2ccccc2n1 [Example 16, 3-Methoxy-N-[(1S,2S)-2-[(quinoxalin-2-yl)amino]cyclopentyl]pyridine-2-carboxamide] | 630 nM | –
11 | O=C(N[C@H]1CCC[C@@H]1Nc1nc2ccc(Cl)cc2s1)c1ncccc1OC(F)F [Example 22, N-[(1S,2S)-2-[(6-Chloro-1,3-benzothiazol-2-yl)amino]cyclopentyl]-3-(difluoromethoxy)pyridine-2-carboxamide] | 300 nM | > 10000 nM
12 | O=C(N[C@H]1CCC[C@@H]1Nc1nc2ccc(F)cc2s1)c1ncccc1OC(F)F [Example 20, 3-(Difluoromethoxy)-N-[(1S,2S)-2-[(6-fluoro-1,3-benzothiazol-2-yl)amino]cyclopentyl]pyridine-2-carboxamide] | 100 nM | > 10000 nM
13 | COc1ccc(C(F)(F)F)nc1C(=O)N[C@H]1CCC[C@@H]1Nc1nc2ccc(F)cc2s1 [Example 17, N-[(1S,2S)-2-[(6-Fluoro-1,3-benzothiazol-2-yl)amino]cyclopentyl]-3-methoxy-6-(trifluoromethyl)pyridine-2-carboxamide] | 210 nM | 9600 nM
14 | O=C(N[C@H]1CCC[C@@H]1Nc1nc2ccc(F)cc2s1)c1ncccc1-n1ccnn1 [Example 24, N-[(1S,2S)-2-[(6-Fluoro-1,3-benzothiazol-2-yl)amino]cyclopentyl]-3-(1H-1,2,3-triazol-1-yl)pyridine-2-carboxamide] | 86 nM | > 10000 nM
15 | O=C(N[C@H]1CCC[C@@H]1Nc1nc2ccc(F)cc2o1)c1ncccc1OC(F)F [Example 23, 3-(Difluoromethoxy)-N-[(1S,2S)-2-[(6-fluoro-1,3-benzoxazol-2-yl)amino]cyclopentyl]pyridine-2-carboxamide] | 290 nM | > 10000 nM
16 | CCOc1cccnc1C(=O)N[C@H]1CCC[C@@H]1Nc1nc2ccc(F)cc2s1 [Example 18, 3-Ethoxy-N-[(1S,2S)-2[(6-fluoro-1,3-benzothiazol-2-yl)amino]cyclopentyl]pyridine-2-carboxamide] | 41 nM | 8800 nM
17 | O=C(N[C@H]1CCC[C@@H]1Nc1nc2ccc(F)cc2s1)c1ncccc1-n1cccn1 [Example 10, N-[(1S,2S)-2-[(6-Fluoro-1,3-benzothiazol-2-yl)amino]cyclopentyl]-3-(1H-pyrazol-1-yl)pyridine-2-carboxamide] | 21 nM | > 10000 nM
18 | O=C(N[C@H]1CCC[C@@H]1Nc1nc2ccc(F)cc2s1)c1ncccc1N1CCC1 [Example 13, 3-(Azetidin-1-yl)-N-[(1S,2S)-2-[(6-fluoro-1,3-benzothiazol-2-yl)amino]cyclopentyl]pyridine-2-carboxamide] | 69 nM | > 10000 nM
19 | COc1cccnc1C(=O)N[C@H]1CCC[C@@H]1Nc1nc2ccc(F)cc2s1 [Example 3, N-[(1S,2S)-2-[(6-Fluoro-1,3-benzothiazol-2-yl)amino]cyclopentyl]-3-methoxypyridine-2-carboxamide] | 170 nM | > 10000 nM
20 | O=C(N[C@H]1CCC[C@@H]1Nc1nc2ccc(F)cc2s1)c1ncccc1-n1nccn1 [Example 6, N-[(1S,2S)-2-[(6-Fluoro-1,3-benzothiazol-2-yl)amino]cyclopentyl]-3-(2H-1,2,3-triazol-2-yl)pyridine-2-carboxamide] | 8.6 nM | > 10000 nM
21 | CC(C)Oc1cccnc1C(=O)N[C@H]1CCC[C@@H]1Nc1nc2ccc(F)cc2s1 [Example 8, N-[(1S,2S)-2-[(6-Fluoro-1,3-benzothiazol-2-yl)amino]cyclopentyl]-3-(propan-2-yloxy)pyridine-2-carboxamide] | 34 nM | 3300 nM
22 | O=C(N[C@H]1CCC[C@@H]1Nc1nc2ccc(F)cc2s1)c1ncccc1N1CCCC1 [Example 14, N-[(1S,2S)-2-[(6-Fluoro-1,3-benzothiazol-2-yl)amino]cyclopentyl]-3-(pyrrolidin-1-yl)pyridine-2-carboxamide] | 170 nM | > 10000 nM
23 | CCOc1ccc(C)nc1C(=O)NC1CCCC1Cc1ccc2ccccc2n1 (stereo not drawn) [Example 26, 3-Ethoxy-6-methyl-N-[2-(quinolin-2-ylmethyl)cyclopentyl]pyridine-2-carboxamide] | 910 nM | –
24 | O=C(N[C@H]1CCC[C@@H]1Nc1nc2ccc(Cl)cc2o1)c1ncccc1OC(F)F [Example 25, N-[(1S,2S)-2-[(6-Chloro-1,3-benzoxazol-2-yl)amino]cyclopentyl]-3-(difluoromethoxy)pyridine-2-carboxamide] | 660 nM | > 10000 nM
25 | O=C(N[C@H]1CCC[C@@H]1Nc1nc2ccc(F)cc2s1)c1ncccc1OC(F)(F)F [Example 19, N-[(1S,2S)-2-[(6-Fluoro-1,3-benzothiazol-2-yl)amino]cyclopentyl]-3-(trifluoromethoxy)pyridine-2-carboxamide] | 33 nM | 3600 nM
